Test results reported in publication PMC8145110, “Design, Synthesis, and Antibacterial Screening of Some Novel Heteroaryl-Based Ciprofloxacin Derivatives as DNA Gyrase and Topoisomerase IV Inhibitors” (Pharmaceuticals, 2021).
≈ marks a conversion by molar mass, not a printed value.

Legend:
[1] = tested on: S. aureus; assay: MIC, two-fold serial dilution, S. aureus; assay type: cell-based, Staphylococcus aureus; conditions: for MIC: Staphylococcus aureus, read-out: Minimum Inhibitory Concentration (MIC), S. aureus
Procedure: (§1) Table 2, using the reference drug ciprofloxacin, was presented with the MICs (minimal inhibitory concentrations) of these compounds against tested bacteria. […] The nature of aromatic substitution in the oxadiazole moiety tends to be correlated with higher antibacterial effects and the activity increased with (Ar) in the order of 2-pyridyl ≥ 3-pyridyl > 4-pyridyl > 2-Cl-Ph > 2-naphthyl.
(§2) On 96-well microtiter plates and […] of fresh bacterial culture of a single McFarland unit overnight, a double serial dilution of each compound […] in sterile standard saline was prepared for every single source well. Ciprofloxacin antibiotic (5 mg/mL^−1) and normal saline were included as standard references in each assay (see Appendix A).
(§3) In 96-well microtiter plates and […] of fresh bacterial culture of a single McFarland unit overnight, a double serial dilution of each compound […] in sterile standard saline was prepared for every single source well. Ciprofloxacin antibiotic (5 mg/mL^−1) and normal saline were included as standard reference in each assay. The plates were incubated at 37 °C overnight. As an indicator of bacterial growth, […] of p-iodonitrotetrazolium violet (INT) was added to each well and incubated at 37 °C for 30 min. […] The colorless tetrazolidium salt acts as an electron accepter and is reduced to a red colored formazan product by biological activity organisms. Where bacterial growth was inhibited, the solution in the well remained clear after incubation with INT.

[2] = tested on: B. subtilis; assay: MIC, two-fold serial dilution, B. subtilis; assay type: cell-based; conditions: Bacillus subtilis; read-out: Minimum Inhibitory Concentration (MIC), B. subtilis
Procedure: as §1, §2, §3

[3] = tested on: P. aeruginosa; assay: MIC, two-fold serial dilution, P. aeruginosa; assay type: cell-based; conditions: Pseudomonas aeruginosa; read-out: Minimum Inhibitory Concentration (MIC), P. aeruginosa
Procedure: as §1, §2, §3

[4] = tested on: E. coli; assay: MIC, two-fold serial dilution, E. coli; assay type: cell-based; conditions: Escherichia coli; read-out: Minimum Inhibitory Concentration (MIC), E. coli
Procedure: as §1, §2, §3

[5] = target: T1, E. coli topoisomerase IV (Escherichia coli, UniProt P0AFI2+P20083); assay: E. coli topoisomerase IV assay; assay type: biochemical; conditions: read-out: RA (%), residual activity of E. coli Topo IV
T1 construct: purchased Inspiralis
T1 sequence (P0AFI2 whole entry): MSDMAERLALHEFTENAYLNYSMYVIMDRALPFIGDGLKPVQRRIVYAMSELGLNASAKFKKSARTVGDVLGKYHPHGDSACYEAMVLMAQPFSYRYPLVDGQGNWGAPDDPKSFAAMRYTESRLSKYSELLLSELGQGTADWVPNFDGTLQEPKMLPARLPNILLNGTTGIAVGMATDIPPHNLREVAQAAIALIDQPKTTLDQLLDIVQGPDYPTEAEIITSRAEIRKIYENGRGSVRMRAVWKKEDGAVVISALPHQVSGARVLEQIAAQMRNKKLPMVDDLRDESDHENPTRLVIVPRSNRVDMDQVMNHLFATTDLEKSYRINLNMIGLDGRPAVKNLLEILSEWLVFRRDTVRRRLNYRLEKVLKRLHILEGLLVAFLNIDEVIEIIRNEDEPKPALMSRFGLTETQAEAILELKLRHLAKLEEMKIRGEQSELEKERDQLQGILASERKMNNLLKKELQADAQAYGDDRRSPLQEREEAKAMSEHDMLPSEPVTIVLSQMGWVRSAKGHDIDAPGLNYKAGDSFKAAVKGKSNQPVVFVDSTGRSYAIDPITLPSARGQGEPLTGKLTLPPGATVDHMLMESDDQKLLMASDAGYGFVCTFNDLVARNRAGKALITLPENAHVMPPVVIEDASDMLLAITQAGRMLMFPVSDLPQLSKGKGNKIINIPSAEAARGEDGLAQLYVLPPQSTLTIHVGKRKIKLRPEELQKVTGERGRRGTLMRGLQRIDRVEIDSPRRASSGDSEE
T1 sequence (P20083 whole entry): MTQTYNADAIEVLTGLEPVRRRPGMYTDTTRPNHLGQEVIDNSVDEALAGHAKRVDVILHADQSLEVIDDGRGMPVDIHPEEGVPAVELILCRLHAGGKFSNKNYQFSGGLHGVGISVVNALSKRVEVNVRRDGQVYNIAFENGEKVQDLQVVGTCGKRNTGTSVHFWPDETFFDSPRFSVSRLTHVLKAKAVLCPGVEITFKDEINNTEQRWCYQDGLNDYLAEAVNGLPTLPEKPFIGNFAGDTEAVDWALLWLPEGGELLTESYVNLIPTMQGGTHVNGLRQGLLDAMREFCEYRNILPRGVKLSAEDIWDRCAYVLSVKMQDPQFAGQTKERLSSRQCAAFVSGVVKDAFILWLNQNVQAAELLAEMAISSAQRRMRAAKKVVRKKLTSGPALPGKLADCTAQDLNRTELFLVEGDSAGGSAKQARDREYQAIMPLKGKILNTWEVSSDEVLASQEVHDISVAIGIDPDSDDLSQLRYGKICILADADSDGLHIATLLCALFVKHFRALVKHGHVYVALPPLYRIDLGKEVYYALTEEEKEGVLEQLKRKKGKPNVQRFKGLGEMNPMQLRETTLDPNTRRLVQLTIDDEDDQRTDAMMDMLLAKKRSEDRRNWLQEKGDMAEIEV
Procedure: (§4) IC50 assay determination was carried out in accordance with the procedures previously stated (see Appendix A).
(§5) Inhibitory activities were determined in an assay from Inspiralis on streptavidin-coated 96-well microtiter plates from Thermo scientific Pierce. […] After washing off the unbound oligonucleotide, the enzyme test was performed. […] After that, the TF buffer (50 mM NaOAc with pH 5.0, 50 mM NaCl and 50 mM MgCl2) was added to terminate the enzymatic reaction. After additional incubation for 30 min at rt, during which biotin-oligonucleotide-plasmid triplex was 19 formed, the unbound plasmid was washed off using TF buffer and SybrGOLD in T10 buffer (10 mM Tris HCl with pH 8.0 and 1 mM EDTA) was added. […] Initial screening was done at 100 or 10 μM concentration of inhibitors. […] GraphPad Prism software was used to calculate the IC50 values. The result is given as the average value of three independent measurements. […] Determination of inhibitory activities on E. coli and S. aureus Topoisomerase IV IC50 values were determined in an assay from Inspiralis on streptavidin-coated 96-well microtiter plates from Thermo scientific Pierce. […] After washing off the unbound oligonucleotide, the enzyme test was performed. The reaction volume of 30 μL in buffer (40 mM HEPES KOH with pH 7.6, 100 mM potassium glutamate, 10 mM magnesium acetate, 10 mM DTT, 1 mM ATP, 0.05 mg/mL albumin) contained 1.5 U of topoisomerase IV from E. coli or S. aureus, 0.75 μg of pNO1 supercoiled plasmid, and 3 μL solution of the inhibitor in DMSO (10%) and Tween 20 (0.008%). […] After additional incubation for 30 min at rt, during which triplex (biotin-oligonucleotide-plasmid) was formed, the unbound plasmid was washed off using TF buffer and SybrGOLD in T10 buffer (10 mM Tris HCl with pH 8.0 and 1 mM EDTA) was added. […] Initial screening was done at 100 or 10 μM concentration of inhibitors. […] GraphPad Prism software was used to calculate the IC50 values. The result is given as the average value of three independent measurements.

[6] = Cell viability assay (MTT); assay type: cell-based; set-up: dose or concentration left out as unconfirmed; conditions: human, MCF-10A mammary gland epithelial cells, four days
Procedure: A human mammary gland epithelial cell line (MCF-10A) was used to conduct a cell viability assay. Compounds 2–6 were incubated with MCF-10A cells for four days, and the viability of the cells was determined using the 3-(4,5-dimethylthiazol-2-yl)-2,5-diphenyltetrazolium bromide (MTT) assay. All compounds had no cytotoxic effects, and the viability of the cells was greater than 85% for most of the compounds examined […], as shown in Table 4.
MTT Assay was performed to investigate the effect of compounds 2–6 on the viability of mammary epithelial cells (MCF-10A) (see Appendix A).

[7] = target: T2, E. coli DNA gyrase (Escherichia coli, UniProt P0AES4+P0AES6); assay: E. coli DNA gyrase assay; assay type: biochemical; conditions: read-out: RA (%), residual activity of E. coli DNA Gyrase
T2 construct: purchased Inspiralis
Procedure: as §4, §5

| Compound | melting point [°C] | further results |
| --- | --- | --- |
| O=C(O)c1cn(C2CC2)c2cc(N3CCNCC3)c(F)cc2c1=O [Ciprofloxacin] |  | MIC, S. aureus [1]: 0.03 µg/mL (≈ 0.0905 µM); MIC [1]: 0.03 µg/mL (≈ 0.0905 µM); MIC [2]: 0.01 µg/mL (≈ 0.0302 µM); MIC [3]: 0.06 µg/mL (≈ 0.181 µM); MIC [4]: 0.06 µg/mL (≈ 0.181 µM) |
| O=C(O)c1cn(C2CC2)c2cc(N3CCN(Cn4nc(-c5ccccc5Cl)oc4=S)CC3)c(F)cc2c1=O [Compound 2, 7-{4-[5-(2-Chloro-phenyl)-2-thioxo-[1,3,4]oxadiazol-3-ylmethyl]-piperazin-1-yl}-1-cyclopropyl-6-fluoro-4-oxo-1,4-dihydro-quinoline-3-carboxylic acid] | 226 | MIC, S. aureus [1]: 0.062 µg/mL (≈ 0.112 µM); MIC [1]: 0.162 µg/mL (≈ 0.291 µM); remaining activity at 1 µM [5]: 89%; viability at 4 days [6]: 87%; remaining activity at 1 µM [7]: 57%; MIC [2]: 0.125 µg/mL (≈ 0.225 µM); MIC [3]: 0.125 µg/mL (≈ 0.225 µM); MIC [4]: 0.125 µg/mL (≈ 0.225 µM) |
| O=C(O)c1cn(C2CC2)c2cc(N3CCN(Cn4nc(-c5ccccc5Cl)n(-c5ccccc5)c4=S)CC3)c(F)cc2c1=O [Compound 8, 7-{4-[3-(2-Chloro-phenyl)-4-phenyl-5-thioxo-4,5-dihydro-[1,2,4]triazol-1-ylmethyl]-piperazin-1-yl}-1-cyclopropyl-6-fluoro-4-oxo-1,4-dihydro-quinoline-3-carboxylic acid] | 214 |  |
| O=C(O)c1cn(C2CC2)c2cc(N3CCN(Cn4nc(-c5ccccn5)n(-c5ccccc5)c4=S)CC3)c(F)cc2c1=O [Compound 10, 1-Cyclopropyl-6-fluoro-4-oxo-7-[4-(4-phenyl-3-pyridin-2-yl-5-thioxo-4,5-dihydro-[1,2,4]triazol-1-ylmethyl)-piperazin-1-yl]-1,4-dihydro-quinoline-3-carboxylic acid] | 270 |  |
| O=C(O)c1cn(C2CC2)c2cc(N3CCN(Cn4nc(-c5ccncc5)n(-c5ccccc5)c4=S)CC3)c(F)cc2c1=O [Compound 12, 1-Cyclopropyl-6-fluoro-4-oxo-7-[4-(4-phenyl-3-pyridin-4-yl-5-thioxo-4,5-dihydro-[1,2,4]triazol-1-ylmethyl)-piperazin-1-yl]-1,4-dihydro-quinoline-3-carboxylic acid] | 227 |  |
| N#CN=C1NC(c2ccccc2)(c2ccccc2)C(=O)N1CN1CCN(c2cc3c(cc2F)c(=O)c(C(=O)O)cn3C2CC2)CC1 [Compound 15, 7-[4-(2-Cyanoimino-5-oxo-4,4-diphenyl-imidazolidin-1-ylmethyl)-piperazin-1-yl]-1-cyclopropyl-6-fluoro-4-oxo-1,4-dihydro-quinoline-3-carboxylic acid] | 230 |  |
| COc1ccc(C=C2SC(=O)N(CN3CCN(c4cc5c(cc4F)c(=O)c(C(=O)O)cn5C4CC4)CC3)C2=O)cc1 [Compound 18, 1-Cyclopropyl-6-fluoro-7-{4-[5-(4-methoxy-benzylidene)-2,4-dioxo-thiazolidin-3-ylmethyl]-piperazin-1-yl}-4-oxo-1,4-dihydro-quinoline-3-carboxylic acid] | 251 |  |

Further lines, with some results ahead:

| melting point [°C] | Compound | further results |
| --- | --- | --- |
| 228 | O=C(O)c1cn(C2CC2)c2cc(N3CCN(Cn4nc(-c5ccccc5)oc4=S)CC3)c(F)cc2c1=O [Compound 1, 1-Cyclopropyl-6-fluoro-4-oxo-7-[4-(5-phenyl-2-thioxo[1,3,4]oxadiazol-3-yl-methyl)-piperazin-1-yl]-1,4-dihydro-quinoline-3-carboxylic acid] |  |
| 288 | O=C(O)c1cn(C2CC2)c2cc(N3CCN(Cn4nc(-c5ccccc5)n(-c5ccccc5)c4=S)CC3)c(F)cc2c1=O [Compound 7, 1-Cyclopropyl-7-[4-(3,4-diphenyl-5-thioxo-4,5-dihydro-[1,2,4]triazol-1-ylmethyl)-piperazin-1-yl]-6-fluoro-4-oxo-1,4-dihydro-quinoline-3-carboxylic acid] |  |
| 262 | O=C(O)c1cn(C2CC2)c2cc(N3CCN(Cn4nc(-c5ccc6ccccc6c5)n(-c5ccccc5)c4=S)CC3)c(F)cc2c1=O [Compound 9, 1-Cyclopropyl-6-fluoro-7-[4-(3-naphthalen-2-yl-4-phenyl-5-thioxo-4,5-dihydro-[1,2,4]triazol-1-ylmethyl)-piperazin-1-yl]-4-oxo-1,4-dihydro-quinoline-3-carboxylic acid] |  |
| 280 | O=C(O)c1cn(C2CC2)c2cc(N3CCN(Cn4nc(-c5cccnc5)n(-c5ccccc5)c4=S)CC3)c(F)cc2c1=O [Compound 11, 1-Cyclopropyl-6-fluoro-4-oxo-7-[4-(4-phenyl-3-pyridin-3-yl-5-thioxo-4,5-dihydro-[1,2,4]triazol-1-ylmethyl)-piperazin-1-yl]-1,4-dihydro-quinoline-3-carboxylic acid] |  |
| 217 | O=C(O)c1cn(C2CC2)c2cc(N3CCN(CN4C(=O)C(c5ccccc5)(c5ccccc5)NC4=S)CC3)c(F)cc2c1=O [Compound 13, 1-Cyclopropyl-6-fluoro-4-oxo-7-[4-(5-oxo-4,4-diphenyl-2-thioxo-imidazolidin-1-ylmethyl)-piperazin-1-yl]-1,4-dihydro-quinoline-3-carboxylic acid] |  |
| 234 | NN1C(=S)N(CN2CCN(c3cc4c(cc3F)c(=O)c(C(=O)O)cn4C3CC3)CC2)C(=O)C1(c1ccccc1)c1ccccc1 [Compound 14, 7-[4-(3-Amino-5-oxo-4,4-diphenyl-2-thioxo-imidazolidin-1-ylmethyl)-piperazin-1-yl]-1-cyclopropyl-6-fluoro-4-oxo-1,4-dihydro-quinoline-3-carboxylic acid] |  |
| 244 | O=C(O)c1cn(C2CC2)c2cc(N3CCN(CN4C(=O)SC(=Cc5ccc(Cl)cc5)C4=O)CC3)c(F)cc2c1=O [Compound 17, 7-{4-[5-(4-Chloro-benzylidene)-2,4-dioxo-thiazolidin-3-ylmethyl]-piperazin-1-yl}-1-cyclopropyl-6-fluoro-4-oxo-1,4-dihydro-quinoline-3-carboxylic acid] |  |
| 244 | O=C(O)c1cn(C2CC2)c2cc(N3CCN(CN4C(=O)SC(=Cc5ccccc5O)C4=O)CC3)c(F)cc2c1=O [Compound 19, 1-Cyclopropyl-6-fluoro-7-{4-[5-(2-hydroxy-benzylidene)-2,4-dioxo-thiazolidin-3-ylmethyl]-piperazin-1-yl}-4-oxo-1,4-dihydro-quinoline-3-carboxylic acid] |  |
| 241 | O=C(O)c1cn(C2CC2)c2cc(N3CCN(CN4C(=O)c5ccccc5C4=O)CC3)c(F)cc2c1=O [Compound 20, 1-Cyclopropyl-7-[4-(1,3-dioxo-1,3-dihydro-isoindol-2-ylmethyl)-piperazin-1-yl]-6-fluoro-4-oxo-1,4-dihydro-quinoline-3-carboxylic acid] |  |
| 214 | O=C(O)c1cn(C2CC2)c2cc(N3CCN(CN4C(=O)CCC4=O)CC3)c(F)cc2c1=O [Compound 21, 1-Cyclopropyl-7-[4-(2,5-dioxo-pyrrolidin-1-ylmethyl)-piperazin-1-yl]-6-fluoro-4-oxo-1,4-dihydro-quinoline-3-carboxylic acid] |  |
